Assay results as given in patent US20220296616A1, “SHP1 AND SHP2 INHIBITORS AND THEIR METHODS OF USE” (Tiaki Therapeutics Inc., priority 2019, published 2022).

Tests used:
[1] = test system: matrix remodeling genes (mmp9, mmp16, mmp12, mmp2, mmp14); assay: Expression of matrix remodeling genes in organotypic cortical brain slice cultures; format: cell-based, mice
Protocol: (§1) The treatment of organotypic cortical brain slice cultures from adult mice with Compound A for 48 h was associated with reductions in expression of matrix remodeling genes (mmp9, mmp16, mmp12; n=3-9, see FIG. 1A showing results of dosing of Compound A at 5 nM, 50 nM, 500 nM, and 5 μM) and total MMP12 protein (n=3-6, see FIG. 1B showing results of dosing of Compound A at 5 nM, 50 nM, 500 nM, and 5 μM).
(§2) The treatment of organotypic cortical brain slice cultures from adult mice with Compound B for 48 h was associated with reductions in expression of cytokine genes (egfr, i16ra, csf1r, illr1, plekho2; n=3, see FIG. 3A showing results of dosing of Compound B at 2 μM, and 20 μM) and matrix remodeling genes (mmp12, mmp2, mmp16, mmp14; n=3, see FIG. 3B showing results of dosing of Compound B at 2 μM, and 20 μM).
(§3) The treatment of organotypic brain mice cultures from adult mice with Compound C for 72 h was associated with reductions in expression of cytokine genes (egfr, i16ra, csf1r, plekho2; n=2, See FIG. 5A showing results of dosing of Compound C at 0.1 μM, 0.3 μM, and 10 μM), matrix remodeling genes (mmp12, mmp16; n=2, See FIG. 5B for results of dosing of compound C at 0.1 μM, 0.3 μM, and 10 μM), and astrocyte genes (egfr, ai464131, gdpd2, adh1l1; n=2, See FIG. 5C for results of dosing of compound C at 0.1 μM, 0.3 μM, and 10 μM), and increases in expression of neuronal marker genes (tbr1, dlx1, slc17a6, islr2; n=2, See FIG. 5D for results of dosing of compound C at 0.1 μM, 0.3 μM, and 10 μM).

cytokine genes = assay: Expression of cytokine genes in organotypic cortical slice cultures; format: cell-based, mice
Protocol: (§4) The treatment of organotypic cortical slice cultures with Compound A for 48 h was associated with reductions in expression of cytokine genes (cx3cl1, tgfbr2, i14ra, tgfb1, tnfrsf10b, csf1r, egfr, fit1, flt4, ccl12; n=3-9, see FIG. 2A showing results of dosing of Compound A at 5 nM, 50 nM, 500 nM, and 5 μM) and pro-inflammatory cytokines like IL-33 (n=3-6, see FIG. 2B showing results of dosing of Compound A at 50 nM, 500 nM, and 5 μM).
as §2, §3

astrocyte marker genes = assay: Expression of astrocyte marker genes in organotypic cortical brain slice cultures; format: cell-based, mice
Protocol: (§5) The treatment of organotypic cortical brain slice cultures from adult mice with Compound B for 48 h was associated with reductions in expression of astrocyte marker genes (egfr, AI464131, Itga7, Gdpd2, Sox9, Aldh1l1, Entpd2; n=3, see FIG. 4A showing results of dosing of Compound B at 2 μM, and 20 μM) and increases in expression of neuronal marker genes (tbr1, Dlx1, Slc17a6, Islr2; n=3, see FIG. 4B showing results of dosing of Compound B at 2 μM, and 20 μM).
as §3

neuronal marker genes = assay: Expression of neuronal marker genes in organotypic cortical brain slice cultures; format: cell-based, mice
Protocol: as §5, §3

MMP12 protein = assay: Total MMP12 protein in organotypic cortical brain slice cultures; format: cell-based; settings: organotypic cortical brain slice cultures from adult mice, 48 h, 5 nM, 50 nM, 500 nM, 5 μM; significant dose-dependence; FIG. 1B
Protocol: as §1

IL-33 = assay: Pro-inflammatory cytokine IL-33 in organotypic cortical slice cultures; format: cell-based, mice; settings: 48 h, 50 nM, 500 nM, 5 μM, FIG. 2B
Protocol: as §4

## CC1(N)CCN(c2cnc3c(-c4cccc(Cl)c4Cl)n[nH]c3n2)CC1 [Compound C]
[1]; organotypic brain cultures from adult mice, 72 h, 0.1 μM, 0.3 μM, 10 μM, FIG. 5B
  expression of matrix remodeling genes (mmp12, mmp16): reductions
Cytokine genes; organotypic brain cultures from adult mice, 72 h, 0.1 μM, 0.3 μM, 10 μM, FIG. 5A
  expression of cytokine genes (egfr, i16ra, csf1r, plekho2): reductions
Astrocyte marker genes; organotypic brain cultures from adult mice, 72 h, 0.1 μM, 0.3 μM, 10 μM, FIG. 5C
  expression of astrocyte genes (egfr, ai464131, gdpd2, adh1l1): reductions
Neuronal marker genes; organotypic brain cultures from adult mice, 72 h, 0.1 μM, 0.3 μM, 10 μM, FIG. 5D
  expression of neuronal marker genes (tbr1, dlx1, slc17a6, islr2): increases

## O=S(=O)(O)c1ccc2cc(/N=N/c3cc(S(=O)(=O)O)c4cccnc4c3O)ccc2c1 [Compound B]
[1]; organotypic cortical brain slice cultures from adult mice, 48 h, 2 μM and 20 μM, FIG. 3B
  expression of matrix remodeling genes (mmp12, mmp2, mmp16, mmp14): reductions
Cytokine genes; organotypic cortical brain slice cultures from adult mice, 48 h, 2 μM and 20 μM, FIG. 3A
  expression of cytokine genes (egfr, i16ra, csf1r, illr1, plekho2): reductions
Astrocyte marker genes; organotypic cortical brain slice cultures from adult mice, 48 h, 2 μM and 20 μM, FIG. 4A
  expression of astrocyte marker genes (egfr, AI464131, Itga7, Gdpd2, Sox9, Aldh1l1, Entpd2): reductions
Neuronal marker genes; organotypic cortical brain slice cultures from adult mice, 48 h, 2 μM and 20 μM, FIG. 4B
  expression of neuronal marker genes (tbr1, Dlx1, Slc17a6, Islr2): increases

## Cc1nc(N2CCC3(CC2)CO[C@@H](C)[C@H]3N)c(CO)nc1-c1cccc(Cl)c1Cl [Compound A]
[1]; organotypic cortical brain slice cultures from adult mice, 48 h, 5 nM, 50 nM, 500 nM, 5 μM, significant dose-dependence, FIG. 1A
  expression of matrix remodeling genes (mmp9, mmp16, mmp12): reductions
MMP12 protein
  total MMP12 protein: reductions
Cytokine genes; organotypic cortical slice cultures, 48 h, 5 nM, 50 nM, 500 nM, 5 μM, FIG. 2A
  expression of cytokine genes (cx3cl1, tgfbr2, i14ra, tgfb1, tnfrsf10b, csf1r, egfr, fit1, flt4, ccl12): reductions
IL-33
  expression of pro-inflammatory cytokines like IL-33: reductions
